# Assays:
# Settings in all cases: Compound concentration 10.0 uM
# [1] = biological target: Adenosine receptor A2a (Homo sapiens) (UniProt P29274)
# [2] = biological target: T1, Alpha-1D adrenergic receptor (Homo sapiens) (UniProt P25100)
# T1 sequence (whole entry): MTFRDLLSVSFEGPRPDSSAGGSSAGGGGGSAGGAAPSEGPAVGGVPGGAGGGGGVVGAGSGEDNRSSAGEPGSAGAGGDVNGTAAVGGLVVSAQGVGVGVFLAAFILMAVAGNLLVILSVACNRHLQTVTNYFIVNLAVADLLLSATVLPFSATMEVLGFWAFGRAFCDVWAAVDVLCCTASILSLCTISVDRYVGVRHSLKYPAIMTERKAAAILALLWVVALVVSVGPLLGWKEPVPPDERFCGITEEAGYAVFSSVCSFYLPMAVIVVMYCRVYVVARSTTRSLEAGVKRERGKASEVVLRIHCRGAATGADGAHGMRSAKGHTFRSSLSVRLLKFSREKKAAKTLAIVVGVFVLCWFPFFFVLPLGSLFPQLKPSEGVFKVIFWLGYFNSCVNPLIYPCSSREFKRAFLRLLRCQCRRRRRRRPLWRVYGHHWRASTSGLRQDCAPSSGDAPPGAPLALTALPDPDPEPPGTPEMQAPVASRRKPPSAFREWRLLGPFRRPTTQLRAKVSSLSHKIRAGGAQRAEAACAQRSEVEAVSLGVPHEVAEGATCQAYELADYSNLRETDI
# ATR/ATRIP (Homo sapiens) = ATR/ATRIP (Homo sapiens) (UniProt Q13535+Q8WXE1); assay: Inhibition of ATR/ATRIP(h) at 10.0 µM in the Eurofins Kinase panel; type: protein-complex assay
# ATR/ATRIP (Homo sapiens), sequence (Q13535 whole entry, looked up): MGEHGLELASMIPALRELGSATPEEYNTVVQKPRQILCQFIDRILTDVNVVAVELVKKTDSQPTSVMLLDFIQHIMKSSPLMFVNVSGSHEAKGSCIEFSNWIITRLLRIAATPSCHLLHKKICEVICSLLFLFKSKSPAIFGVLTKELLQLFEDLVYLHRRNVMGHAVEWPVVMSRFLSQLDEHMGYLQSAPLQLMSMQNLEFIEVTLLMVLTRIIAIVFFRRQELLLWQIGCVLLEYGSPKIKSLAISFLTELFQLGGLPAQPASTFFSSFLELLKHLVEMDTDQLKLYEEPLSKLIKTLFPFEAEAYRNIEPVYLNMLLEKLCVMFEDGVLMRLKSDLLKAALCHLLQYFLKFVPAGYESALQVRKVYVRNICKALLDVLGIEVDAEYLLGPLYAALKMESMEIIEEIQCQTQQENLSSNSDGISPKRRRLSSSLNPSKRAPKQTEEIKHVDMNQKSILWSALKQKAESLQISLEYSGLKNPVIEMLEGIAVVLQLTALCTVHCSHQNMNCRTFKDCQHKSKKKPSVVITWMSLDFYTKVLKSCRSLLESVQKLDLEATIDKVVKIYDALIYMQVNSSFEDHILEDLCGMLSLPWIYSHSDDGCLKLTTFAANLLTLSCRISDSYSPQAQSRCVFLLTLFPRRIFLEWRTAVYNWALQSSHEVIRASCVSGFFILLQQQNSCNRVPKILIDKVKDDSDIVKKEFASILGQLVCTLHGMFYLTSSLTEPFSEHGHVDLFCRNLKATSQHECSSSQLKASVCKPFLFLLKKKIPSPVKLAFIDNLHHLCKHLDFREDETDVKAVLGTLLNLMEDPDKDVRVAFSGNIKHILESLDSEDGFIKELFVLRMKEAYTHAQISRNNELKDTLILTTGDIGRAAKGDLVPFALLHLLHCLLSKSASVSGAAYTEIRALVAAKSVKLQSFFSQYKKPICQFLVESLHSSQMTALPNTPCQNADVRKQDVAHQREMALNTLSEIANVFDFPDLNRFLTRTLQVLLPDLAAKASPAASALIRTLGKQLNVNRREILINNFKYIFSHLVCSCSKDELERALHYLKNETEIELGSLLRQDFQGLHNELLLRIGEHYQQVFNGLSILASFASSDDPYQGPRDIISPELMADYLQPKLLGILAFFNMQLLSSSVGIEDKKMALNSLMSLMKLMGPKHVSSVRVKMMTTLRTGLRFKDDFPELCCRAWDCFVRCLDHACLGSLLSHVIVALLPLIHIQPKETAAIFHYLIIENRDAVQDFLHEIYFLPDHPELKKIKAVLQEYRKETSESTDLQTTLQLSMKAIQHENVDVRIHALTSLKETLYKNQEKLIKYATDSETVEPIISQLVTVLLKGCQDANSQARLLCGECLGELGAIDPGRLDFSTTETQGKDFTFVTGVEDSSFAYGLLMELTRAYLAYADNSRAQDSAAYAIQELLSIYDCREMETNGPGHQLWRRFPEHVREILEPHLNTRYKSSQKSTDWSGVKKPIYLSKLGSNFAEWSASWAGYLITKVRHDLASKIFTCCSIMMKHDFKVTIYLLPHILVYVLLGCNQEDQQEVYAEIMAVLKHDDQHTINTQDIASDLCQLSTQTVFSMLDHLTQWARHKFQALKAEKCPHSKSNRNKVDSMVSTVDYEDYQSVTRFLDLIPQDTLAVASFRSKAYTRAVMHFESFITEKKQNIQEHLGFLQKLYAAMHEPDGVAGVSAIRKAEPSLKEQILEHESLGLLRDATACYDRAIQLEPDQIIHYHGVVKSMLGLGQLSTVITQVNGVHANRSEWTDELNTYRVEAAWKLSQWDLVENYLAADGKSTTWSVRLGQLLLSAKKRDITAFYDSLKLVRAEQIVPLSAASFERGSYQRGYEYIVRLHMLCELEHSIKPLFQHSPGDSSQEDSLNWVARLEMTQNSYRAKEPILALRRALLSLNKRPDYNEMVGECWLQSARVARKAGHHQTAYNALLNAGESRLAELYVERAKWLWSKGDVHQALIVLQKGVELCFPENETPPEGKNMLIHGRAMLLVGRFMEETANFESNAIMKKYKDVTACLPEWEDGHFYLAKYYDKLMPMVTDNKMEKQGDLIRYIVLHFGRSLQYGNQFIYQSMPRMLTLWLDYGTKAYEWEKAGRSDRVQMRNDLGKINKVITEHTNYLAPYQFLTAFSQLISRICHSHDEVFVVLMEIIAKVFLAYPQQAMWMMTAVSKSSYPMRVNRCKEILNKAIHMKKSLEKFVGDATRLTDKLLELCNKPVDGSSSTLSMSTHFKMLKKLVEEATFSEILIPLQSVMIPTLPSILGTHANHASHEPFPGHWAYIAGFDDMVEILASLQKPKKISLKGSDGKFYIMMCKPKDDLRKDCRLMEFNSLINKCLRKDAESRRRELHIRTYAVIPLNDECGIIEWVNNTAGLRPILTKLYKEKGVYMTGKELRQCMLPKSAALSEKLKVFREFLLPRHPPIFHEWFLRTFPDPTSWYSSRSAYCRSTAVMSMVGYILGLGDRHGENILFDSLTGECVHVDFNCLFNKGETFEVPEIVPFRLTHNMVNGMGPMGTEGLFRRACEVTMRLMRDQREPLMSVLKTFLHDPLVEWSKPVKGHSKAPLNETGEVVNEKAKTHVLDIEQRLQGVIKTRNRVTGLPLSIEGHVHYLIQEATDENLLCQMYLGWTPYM
# ATR/ATRIP (Homo sapiens), sequence (Q8WXE1 whole entry, looked up): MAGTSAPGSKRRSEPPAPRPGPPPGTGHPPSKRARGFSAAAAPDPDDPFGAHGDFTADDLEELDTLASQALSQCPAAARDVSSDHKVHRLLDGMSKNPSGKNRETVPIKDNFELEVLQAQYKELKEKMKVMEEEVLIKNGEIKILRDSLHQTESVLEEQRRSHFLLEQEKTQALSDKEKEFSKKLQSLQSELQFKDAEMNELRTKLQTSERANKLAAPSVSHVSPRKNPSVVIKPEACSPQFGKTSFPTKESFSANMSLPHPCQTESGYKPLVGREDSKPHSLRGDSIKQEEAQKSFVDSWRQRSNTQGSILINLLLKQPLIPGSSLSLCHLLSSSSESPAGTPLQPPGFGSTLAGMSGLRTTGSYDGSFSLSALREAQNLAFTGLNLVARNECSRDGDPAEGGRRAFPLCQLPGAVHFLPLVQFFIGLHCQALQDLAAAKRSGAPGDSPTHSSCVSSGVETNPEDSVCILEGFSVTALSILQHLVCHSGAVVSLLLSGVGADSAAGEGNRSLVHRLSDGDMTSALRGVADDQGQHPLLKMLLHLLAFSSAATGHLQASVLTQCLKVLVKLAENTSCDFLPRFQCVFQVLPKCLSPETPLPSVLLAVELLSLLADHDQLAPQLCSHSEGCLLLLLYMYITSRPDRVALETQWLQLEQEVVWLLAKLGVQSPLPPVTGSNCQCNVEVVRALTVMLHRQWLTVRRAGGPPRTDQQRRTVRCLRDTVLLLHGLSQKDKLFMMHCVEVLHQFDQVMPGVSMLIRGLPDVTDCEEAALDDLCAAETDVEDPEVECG
# [3] = biological target: Tyrosine-protein kinase Lck (Homo sapiens) (UniProt P06239); assay: Inhibition of Lck(h) activated at 10.0 µM in the Eurofins Kinase panel
# [4] = biological target: Ephrin type-B receptor 2 (Homo sapiens) (UniProt P29323); assay: Inhibition of EphB2(h) at 10.0 µM in the Eurofins Kinase panel
# [5] = biological target: eIF-2-alpha kinase GCN2 (Homo sapiens) (UniProt Q9P2K8); assay: Inhibition of GCN2(h) at 10.0 µM in the Eurofins Kinase panel
# [6] = biological target: Protein kinase C eta type (Homo sapiens) (UniProt P24723); assay: Inhibition of PKCeta(h) at 10.0 µM in the Eurofins Kinase panel
# [7] = biological target: Casein kinase I isoform epsilon (Homo sapiens) (UniProt P49674); assay: Inhibition of CK1epsilon(h) at 10.0 µM in the Eurofins Kinase panel
# [8] = biological target: Serine/threonine-protein kinase TAO1 (Homo sapiens) (UniProt Q7L7X3); assay: Inhibition of TAO1(h) at 10.0 µM in the Eurofins Kinase panel
# [9] = biological target: 5-hydroxytryptamine receptor 6 (Homo sapiens) (UniProt P50406)
# 5-hydroxytryptamine receptor 6 (Homo sapiens), sequence (P50406 whole entry): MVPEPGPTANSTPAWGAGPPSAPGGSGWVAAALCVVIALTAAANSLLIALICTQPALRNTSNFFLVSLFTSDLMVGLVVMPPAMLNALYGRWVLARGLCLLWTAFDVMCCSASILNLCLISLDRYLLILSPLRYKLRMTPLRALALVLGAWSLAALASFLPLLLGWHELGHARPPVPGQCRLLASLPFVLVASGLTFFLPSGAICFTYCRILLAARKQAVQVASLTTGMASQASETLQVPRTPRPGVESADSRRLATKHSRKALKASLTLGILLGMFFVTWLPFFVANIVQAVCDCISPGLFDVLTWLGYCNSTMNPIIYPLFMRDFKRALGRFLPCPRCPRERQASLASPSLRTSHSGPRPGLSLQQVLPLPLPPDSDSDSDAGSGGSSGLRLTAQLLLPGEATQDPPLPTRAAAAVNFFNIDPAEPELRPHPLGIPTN
# [10] = biological target: Beta-3 adrenergic receptor (Homo sapiens) (UniProt P13945)
# [11] = biological target: Interleukin-1 receptor-associated kinase 4 (Homo sapiens) (UniProt Q9NWZ3); assay: Inhibition of IRAK4(h) at 10.0 µM in the Eurofins Kinase panel
# [12] = biological target: Delta-type opioid receptor (Homo sapiens) (UniProt P41143)
# [13] = biological target: Kappa-type opioid receptor (Homo sapiens, UniProt P41145)
# Kappa-type opioid receptor, sequence (P41145 whole entry): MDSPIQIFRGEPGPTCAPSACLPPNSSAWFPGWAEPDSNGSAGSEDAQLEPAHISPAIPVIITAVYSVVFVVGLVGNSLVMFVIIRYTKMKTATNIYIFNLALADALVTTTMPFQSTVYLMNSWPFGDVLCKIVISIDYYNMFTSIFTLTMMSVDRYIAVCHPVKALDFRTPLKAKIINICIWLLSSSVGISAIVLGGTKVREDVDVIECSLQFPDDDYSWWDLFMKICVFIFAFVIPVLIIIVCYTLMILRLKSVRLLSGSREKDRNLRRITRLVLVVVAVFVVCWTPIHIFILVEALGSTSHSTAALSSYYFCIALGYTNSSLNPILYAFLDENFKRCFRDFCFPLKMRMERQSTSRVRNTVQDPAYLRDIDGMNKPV
# [14] = biological target: Serine/threonine-protein kinase 38 (Homo sapiens) (UniProt Q15208); assay: Inhibition of NDR1(h) at 10.0 µM in the Eurofins Kinase panel
# [15] = biological target: T2, Muscarinic acetylcholine receptor M1 (Homo sapiens) (UniProt P11229)
# T2 sequence (whole entry): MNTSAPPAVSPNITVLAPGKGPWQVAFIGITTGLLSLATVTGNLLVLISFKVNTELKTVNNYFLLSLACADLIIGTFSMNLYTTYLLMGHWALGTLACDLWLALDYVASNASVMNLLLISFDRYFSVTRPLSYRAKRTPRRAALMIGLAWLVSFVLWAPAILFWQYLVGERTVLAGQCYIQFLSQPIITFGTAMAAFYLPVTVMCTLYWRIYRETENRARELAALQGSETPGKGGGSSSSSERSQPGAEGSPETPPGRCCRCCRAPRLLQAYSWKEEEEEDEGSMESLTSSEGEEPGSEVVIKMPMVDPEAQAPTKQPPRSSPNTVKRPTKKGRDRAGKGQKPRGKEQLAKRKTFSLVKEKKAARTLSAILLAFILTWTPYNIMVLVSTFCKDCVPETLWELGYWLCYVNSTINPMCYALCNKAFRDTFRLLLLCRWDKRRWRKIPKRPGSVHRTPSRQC
# [16] = biological target: Protein kinase C zeta type (Homo sapiens) (UniProt Q05513); assay: Inhibition of PKCzeta(h) at 10.0 µM in the Eurofins Kinase panel
# [17] = biological target: 5-hydroxytryptamine receptor 2C (Homo sapiens) (UniProt P28335)
# [18] = biological target: Serine/threonine-protein kinase 4 (Homo sapiens) (UniProt Q13043); assay: Inhibition of MST1(h) at 10.0 µM in the Eurofins Kinase panel
# [19] = biological target: Serine/threonine-protein kinase Chk1 (Homo sapiens) (UniProt O14757); assay: Inhibition of CHK1(h) at 10.0 µM in the Eurofins Kinase panel
# [20] = biological target: MAP/microtubule affinity-regulating kinase 4 (Homo sapiens) (UniProt Q96L34); assay: Inhibition of MARK4(h) at 10.0 µM in the Eurofins Kinase panel
# [21] = biological target: Interferon-induced, double-stranded RNA-activated protein kinase (Homo sapiens) (UniProt P19525); assay: Inhibition of PKR(h) at 10.0 µM in the Eurofins Kinase panel
# Interferon-induced, double-stranded RNA-activated protein kinase (Homo sapiens), sequence (P19525 whole entry): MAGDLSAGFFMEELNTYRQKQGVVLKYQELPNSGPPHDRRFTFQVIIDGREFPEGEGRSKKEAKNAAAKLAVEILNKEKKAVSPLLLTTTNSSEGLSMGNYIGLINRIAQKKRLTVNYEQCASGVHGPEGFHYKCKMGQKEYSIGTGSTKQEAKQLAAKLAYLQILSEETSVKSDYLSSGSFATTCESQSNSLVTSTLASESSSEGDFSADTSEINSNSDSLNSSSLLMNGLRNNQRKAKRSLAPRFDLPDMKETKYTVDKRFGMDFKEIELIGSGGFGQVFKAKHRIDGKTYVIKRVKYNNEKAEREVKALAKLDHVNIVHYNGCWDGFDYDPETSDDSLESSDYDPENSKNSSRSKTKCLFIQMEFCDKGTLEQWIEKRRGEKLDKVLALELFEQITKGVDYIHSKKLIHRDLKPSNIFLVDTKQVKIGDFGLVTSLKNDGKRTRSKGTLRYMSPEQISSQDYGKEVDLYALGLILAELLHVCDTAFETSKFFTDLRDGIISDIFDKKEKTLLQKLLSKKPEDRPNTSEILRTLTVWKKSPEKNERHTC
# [22] = biological target: Transcription initiation factor TFIID subunit 1-like (Homo sapiens) (UniProt Q8IZX4); assay: Inhibition of TAF1L(h) at 10.0 µM in the Eurofins Kinase panel
# [23] = biological target: Bone morphogenetic protein receptor type-2 (Homo sapiens) (UniProt Q13873); assay: Inhibition of BMPR2(h) at 10.0 µM in the Eurofins Kinase panel
# [24] = biological target: Serine/threonine-protein kinase PAK 3 (Homo sapiens) (UniProt O75914); assay: Inhibition of PAK3(h) at 10.0 µM in the Eurofins Kinase panel
# [25] = biological target: Misshapen-like kinase 1 (Homo sapiens) (UniProt Q8N4C8); assay: Inhibition of MINK(h) at 10.0 µM in the Eurofins Kinase panel
# [26] = biological target: Calcium/calmodulin-dependent protein kinase type 1 (Homo sapiens) (UniProt Q14012); assay: Inhibition of CaMKI(h) at 10.0 µM in the Eurofins Kinase panel
# [27] = biological target: MAP/microtubule affinity-regulating kinase 3 (Homo sapiens) (UniProt P27448); assay: Inhibition of MARK3(h) at 10.0 µM in the Eurofins Kinase panel
Compound,inhibition [1],inhibition [2],inhibition (ATR/ATRIP (Homo sapiens)),inhibition [3],inhibition [4],inhibition [5],inhibition [6],inhibition [7],inhibition [8],inhibition [9],inhibition [10],inhibition [11],inhibition [12],inhibition [13],inhibition [14],inhibition [15],inhibition [16],inhibition [17],inhibition [18],inhibition [19],further results
O=c1n(Cc2cncn2-c2cccc(Cl)c2)nc(-c2ccc(Cl)cc2)n1C[C@H](O)C(F)(F)F,1%,-1.97%,10.2%,2.09%,-4.8%,12.4%,10.8%,4.45%,0.29%,1.09%,6%,-1.29%,2%,3.83%,-2.95%,1%,8.34%,-1%,2.53%,1.73%,inhibition [20]: 2.56%; inhibition [21]: -3.03%; inhibition [22]: -2.39%; inhibition [23]: 14.4%; inhibition [24]: 7.29%; inhibition [25]: 5.6%; inhibition [26]: -4.98%; inhibition [27]: -3.59%
C[C@H](O)c1nc(Cn2nc(-c3ccc(Cl)cc3)n(C[C@H](O)C(F)(F)F)c2=O)nn1-c1cccc(Cl)c1 [PECAVAPTAN],4%,-0.23%,-5.29%,-0.21%,6.86%,13.1%,4.39%,1.26%,2.68%,17.4%,-10%,3.56%,4%,62.4%,-4.67%,-5%,18.7%,20%,9.3%,2.42%,inhibition [20]: 2.7%; inhibition [21]: 1.32%; inhibition [22]: 2.81%; inhibition [23]: 11.1%; inhibition [24]: 1.73%; inhibition [25]: 5.2%; inhibition [26]: -5.17%; inhibition [27]: -2.13%
